Like-named read-outs stand apart in the source and are kept apart here.
Legend:
MET1 cells [1] = experiment: Phototoxicity assay in MET1 cells (irradiation 2.5 J/cm², resazurin); format: cell-based, human; conditions: Homo sapiens, MET-1, light or radiation study, MET1 cells, treated 24 h
Description: (§1) The […] SCC cell line (human squamous cell carcinoma) was obtained from Ximbio (London, UK), HaCaT (immortalized human keratinocytes cell line) was obtained from Addexbio (San Diego, CA, USA) and WM983b (human metastatic melanoma cell line) was obtained from Rockland (Pottstown, PA, USA). […] Cells were cultivated in an incubator (Sanyo MCO-19AIC-UV) at 37 °C in a 5% CO2 humidified atmosphere. […] The plates were incubated for 24 h, followed by washing with PBS supplemented with calcium and magnesium. Afterwards, complete culture medium without phenol red was added, and the plates were irradiated from above and submitted to a dose of 2.5 J/cm2 of irradiation emitted by different wavelength light sources coupled with a homemade irradiation system created in our laboratory. […] This experiment was performed in an incubator that was able to keep plates in a dark environment; therefore, the dark control plates were protected from any light source, as well as the others, with the exception of the irradiation that each one was submitted to. Plates were incubated for another 24 h, and finally, the resazurin assay was performed as previously described in Section 3.3. For the phototoxicity study using WM983b cells, plates were prepared at a cell density of 40,000 cells/cm2, and cells were treated with MB and AO only.

[2] = as above; format: cell-based, human; conditions: human, MET1 squamous cell carcinoma cells; MET1 cells, 457 nm, all investigated concentrations (1.25-40 µM); read-out: cell viability under 457 nm light
Description: as §1

HaCaT cells = experiment: Cytotoxicity (resazurin cell viability) in HaCaT cells; format: cell-based, human; conditions: Homo sapiens, HaCaT cells, 1.25-320 µM
Source text: (§2) The MET1 SCC cell line (human squamous cell carcinoma) was obtained from Ximbio (London, UK), HaCaT (immortalized human keratinocytes cell line) was obtained from Addexbio (San Diego, CA, USA) and WM983b (human metastatic melanoma cell line) was obtained from Rockland (Pottstown, PA, USA). Cells were maintained in Dulbecco’s Modified Eagle Medium (DMEM) supplemented with 10% (v/v) fetal bovine serum (FBS) for MET1 and HaCaT and 5% (v/v) for WM983b cells, and Pen–Strep (penicillin 100 U/mL and streptomycin 100 µg/mL). Cells were cultivated in an incubator (Sanyo MCO-19AIC-UV) at 37 °C in a 5% CO2 humidified atmosphere.
(§3) First, 96-well plates were seeded with HaCaT and MET1 cells at a density of 20,000 cells/cm² and incubated for 24 h. After that period, the culture medium was replaced by culture medium containing different compounds: MB, AO, GV, QT, CUR, EGCG, PHE, NEO and BIPY. The compounds were diluted in culture medium using a range of concentrations of each compound from 1.25 µM to 320 µM (in quadruplicate). The medium was aspirated from the 96-well plate and replaced by the samples diluted in medium. Cells cultured with complete medium and cells cultured with medium supplemented with 0.2% (v/v) or 10% (v/v) of DMSO were used as negative (NC), solvent (SC) and positive controls (PC), respectively. The plates were incubated for 24 and 48 h, followed by evaluation of cell viability using a colorimetric assay. Cells containing samples were washed with PBS supplemented with calcium and magnesium; then, resazurin solution diluted in DMEM at 0.02 mg/mL was added. The medium containing resazurin was also dispensed in wells without cells, which were used as references. After 3 h of incubation, the absorbance was measured in a microplate reader (ELX800UV, Biotek Instruments) at wavelengths of 570 nm and 600 nm. The corrected absorbance was proportional to cell viability. Propagation of uncertainties was used to calculate the combined standard uncertainty. For the cytotoxicity study using WM983b cells, plates were seeded at a density of 40,000 cells/cm², and cells were treated only with MB and AO.

WM983b cells [3] = experiment: Cytotoxicity (resazurin cell viability) in WM983b cells; format: cell-based, human; conditions: for IC50: Homo sapiens, 1.25-320 µM
Source text: as §2, §3

MET1 cells [4] = experiment: Cytotoxicity (resazurin cell viability) in MET1 cells; format: cell-based, human; conditions: Homo sapiens, MET-1, MET1 cells, 1.25-320 µM
Source text: as §2, §3

WM983b cells [5] = experiment: Phototoxicity assay in WM983b cells (irradiation 2.5 J/cm², resazurin); format: cell-based; conditions: Homo sapiens, light or radiation study, treated 24 h
Source text: as §2
For the phototoxicity studies, 96-well plates were seeded with MET1 cells at a density of 20,000 cells/cm², incubated overnight and treated for 24 h with MB, AO, GV, QT, CUR, EGCG, PHE, NEO and BIPY diluted in culture medium in a concentration range of 1.25 µM to 40 µM (in sextuplicate). […] Cells cultured with complete medium and cells cultured with medium supplemented with 0.2% (v/v) or 10% (v/v) of DMSO were used as negative (NC), solvent (SC) and positive control (PC), respectively. The plates were incubated for 24 h, followed by washing with PBS supplemented with calcium and magnesium. Afterwards, complete culture medium without phenol red was added, and the plates were irradiated from above and submitted to a dose of 2.5 J/cm² of irradiation emitted by different wavelength light sources coupled with a homemade irradiation system created in our laboratory. These light sources consisted of an equivalent 26 cm UV tubular lamp (254 nm) (Phillips TUV PLS 9W/2PHg) and a tricolor LED lamp (Led Grow Light Bulb E26/E27) with intensity peaks at 457 nm (blue light), 583 nm (yellow light) and 640 nm (red light) provided by 18, 18 and 28 LEDs, respectively, with dimensions of 3 × 3 mm^2. The irradiance values of light at 254, 457, 583 and 640 nm wavelengths were of 16.7, 55, 45 and 25 W/m^2, respectively. This experiment was performed in an incubator that was able to keep plates in a dark environment; therefore, the dark control plates were protected from any light source, as well as the others, with the exception of the irradiation that each one was submitted to. Plates were incubated for another 24 h, and finally, the resazurin assay was performed as previously described in Section 3.3. For the phototoxicity study using WM983b cells, plates were prepared at a cell density of 40,000 cells/cm², and cells were treated with MB and AO only.

## CN(C)c1ccc2cc3ccc(N(C)C)cc3nc2c1 [Acridine orange, acridine orange]
MET1 cells [1]; 254 nm light, 2.5 J/cm², read-out: IC50 254 nm
  IC50: 7.1 µM
MET1 cells [1]; 457 nm light, 2.5 J/cm², read-out: IC50 457 nm
  IC50: 0.4 µM
MET1 cells [1]; 583 nm light, 2.5 J/cm², read-out: IC50 583 nm
  IC50: 4.1 µM
MET1 cells [1]; 640 nm light, 2.5 J/cm², read-out: IC50 640 nm
  IC50: 6.6 µM
MET1 cells [1]; dark control (no irradiation), read-out: IC50 Dark
  IC50: 11.5 µM
[2]
  viability at 24 h: < 10%
HaCaT cells; 24 h exposure, read-out: IC50 HaCaT Cells 24 h
  IC50: 10.5 µM
HaCaT cells; 48 h exposure, read-out: IC50 HaCaT Cells 48 h
  IC50: 6.5 µM
WM983b cells [3]; 24 or 48 h
  concentration above which the relative cell population falls below 70%: > 20 µM
WM983b cells [3]; 24 h exposure, read-out: IC50 WM983b cells 24 h
  IC50: 25.2 µM
WM983b cells [3]; 48 h exposure, read-out: IC50 WM983b cells 48 h
  IC50: 6.6 µM
MET1 cells [4]; 24 h exposure, read-out: IC50 MET1 Cells 24 h
  IC50: 15.1 µM
MET1 cells [4]; 48 h exposure, read-out: IC50 MET1 Cells 48 h
  IC50: 10.3 µM
WM983b cells [5]; 457 nm light, 2.5 J/cm², read-out: IC50 irradiated samples (457 nm)
  IC50: 1.1 µM
WM983b cells [5]; without irradiation, read-out: IC50 non-irradiated samples
  IC50: 17.5 µM
